In article PMC9757636, “The effectiveness of newly synthesized quaternary ammonium salts differing in chain length and type of counterion against priority human pathogens” (Scientific Reports, 2022):
Marks after values point to notes of the source that are not given here.

Assays:
S. epidermidis B374 [1] = experiment: Adhesion to stainless steel; format: cell-based, Staphylococcus epidermidis; conditions: Staphylococcus epidermidis, 1280 µM, ranges given over several strains
[2] = test system: P. aeruginosa PAO1 biofilm; experiment: Biofilm eradication; format: cell-based, Pseudomonas aeruginosa; conditions: 20 µM, 4 h
Protocol: (§1) Biofilm eradication assay was performed according to the method of Christensen et al. with modifications. A standardized bacterial (OD = 0.6) suspension of 100 µL was spotted into a 96-well polystyrene plate. They were incubated for 24 h at 37 °C. Cultures were removed, the plate was washed and then concentrations of QAS ([…]) were added, incubated for 4 h at 37 °C with 100 rpm shaking. The wells were washed with miliQ and fixed at 60 °C for 20 min. The wells were […] with 0.1% crystal violet solution for 5 min. The wells were washed with miliQ until the unfixed dye was completely eluted. The absorbance at λ = 590 nm was measured using a reader (Bio-Rad Universal Hood II). The positive control was an untreated biofilm. Three independent test trials were performed.

[3] = test system: Salmonella typhimurium TA100; experiment: Mutagenicity (Ames test); format: cell-based; conditions: for Number of colonies: ± SD
How it was run: (§2)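 His-deficient TA98 and TA100 strains were plated with test compound on Davis minimal medium and incubated 48 h at 37 °C before revertant colonies were counted. Mutagenicity ratio is revertants with compound over spontaneous revertants (untreated control); MR ≥ 1.7 is read as mutagenic. Three replicate runs.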

[4] = test system: Salmonella typhimurium TA98; experiment: Mutagenicity (Ames test); format: cell-based; conditions: for Number of colonies: ± SD
How it was run: as §2

P. aeruginosa PAO1 [5] = experiment: Adhesion to polystyrene plate; format: cell-based, Pseudomonas aeruginosa; conditions: concentration not given
Protocol: Adhesion analysis to polystyrene surfaces was determined according to the method of Rodrigues et al. with modifications. Polystyrene 96-well plates were incubated with the respective compound concentrations (10–1280 µM) for 4 h at 37 °C with 100 rpm shaking. The plates were then washed with miliQ and inoculated with 100 µL of bacterial suspension (OD = 0.4–0.6). Plates were incubated for 6 h at 37 °C with 100 rpm shaking. Wells were rinsed and fixed for 20 min at 60 °C. They were then […] with 0.1% crystal violet solution for 5 min. The wells were washed with miliQ until the unfixed dye was completely eluted. The absorbance at λ = 590 nm was measured using a reader (Bio-Rad Universal Hood II). The positive control was a surface not treated with QAS. Three independent trials were performed.

S. aureus ATCC 6538 = experiment: MIC/MBC microdilution; format: cell-based, Staphylococcus aureus; conditions: S. aureus ATCC 6538
S. aureus MRSA R98 = experiment: MIC/MBC microdilution; format: cell-based, Staphylococcus aureus
P. aeruginosa PAO1 [6] = experiment: Adhesion to stainless steel; format: cell-based, Pseudomonas aeruginosa; conditions: Pseudomonas aeruginosa, PAO1, read-out: inhibition of adhesion to stainless steel
P. aeruginosa ATCC 27853 = experiment: MIC/MBC microdilution; format: cell-based, Pseudomonas aeruginosa; conditions: P. aeruginosa ATCC 27853
P. aeruginosa PAO1 [7] = experiment: MIC/MBC microdilution; format: cell-based, Pseudomonas aeruginosa
[8] = Critical micelle concentration by conductometric measurements; format: physicochemical; conditions: aqueous solution, 25 °C
How it was run: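 Specific conductivity of at least 15 concentrations per cationic surfactant measured at constant 25 °C without temperature compensation, conductometer calibrated with KCl standards. CMC taken as the discontinuity point in the conductivity vs concentration plot.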

[9] = test system: S. epidermidis ATCC 35984; experiment: Adhesion to polystyrene plate; format: cell-based, Staphylococcus epidermidis; conditions: concentration not given
S. epidermidis B374 [10] = experiment: Adhesion to polystyrene plate; format: cell-based, Staphylococcus epidermidis; conditions: 160 µM
P. aeruginosa PAO1 [11] = experiment: Adhesion to glass; format: cell-based, Pseudomonas aeruginosa; conditions: concentration not given
[12] = test system: S. epidermidis ATCC 35984; experiment: MIC/MBC microdilution; format: cell-based, Staphylococcus epidermidis
S. epidermidis B374 [13] = experiment: MIC/MBC microdilution; format: cell-based, Staphylococcus epidermidis; conditions: S. epidermidis B374
S. epidermidis SI8 = experiment: MIC/MBC microdilution; format: cell-based, Staphylococcus epidermidis
[14] = test system: S. epidermidis ATCC 35984; experiment: Adhesion to stainless steel; format: cell-based, Staphylococcus epidermidis; conditions: 160 µM
[15] = test system: S. epidermidis ATCC 35984 biofilm; experiment: Biofilm eradication; format: cell-based, Staphylococcus epidermidis; conditions: 10 µM, 4 h
Protocol: as §1

E. coli H64 = experiment: MIC/MBC microdilution; format: cell-based, Escherichia coli; conditions: E. coli H64
E. coli ATCC 11229 = experiment: MIC/MBC microdilution; format: cell-based, Escherichia coli; conditions: E. coli ATCC 11229
[16] = 24 h, 37 °C, >90% growth inhibition

Structure (SMILES): CCCCCCCCCCCCCCCC(=O)N(C)CCC[N+](C)(C)C.[Br-] [BrC16]
- inhibition at 1280 µM (S. epidermidis B374 [1]): 17 to 22%
- biofilm eradication [2]: 50–60%
- mutagenicity index (MR) ([3]; base pair substitution type mutations, MR >= 1.7 indicates mutagenic potential): < 1.7
- Number of colonies ([3]; ¼ MIC): 151.3 ± 3.5
- Mutagenicity index ([3]; ½ MIC): 1.06
- Number of colonies ([3]; ½ MIC): 134 ± 1
- mutagenicity index (MR) ([4]; reading frame shift type mutation, MR >= 1.7 indicates mutagenic potential): above 1.7
- Mutagenicity index ([4]; ¼ MIC): 2.76
- Number of colonies ([4]; ¼ MIC): 70.5 ± 12
- Mutagenicity index ([4]; ½ MIC): 1.84
- Number of colonies ([4]; ½ MIC): 47 ± 14.1
- reduction of adhesion to polystyrene (P. aeruginosa PAO1 [5]): did not reduce the adhesion
- Minimal bactericidal concentration (*MBC) (S. aureus ATCC 6538; 99.9% reduction): 320 *320 µM
- Minimal inhibitory concentration (MIC) (S. aureus ATCC 6538; [16]): 320 *320 µM
- Minimal bactericidal concentration (*MBC) (S. aureus MRSA R98; 99.9% reduction): 320 *320 µM
- Minimal inhibitory concentration (MIC) (S. aureus MRSA R98; [16]): 320 *320 µM
- inhibition at 1280 µM (P. aeruginosa PAO1 [6]): 17 to 22%
- Minimal bactericidal concentration (*MBC) (P. aeruginosa ATCC 27853; 99.9% reduction): > 1280 * > 1280 µM
- Minimal inhibitory concentration (MIC) (P. aeruginosa ATCC 27853; [16]): > 1280 * > 1280 µM
- Minimal bactericidal concentration (*MBC) (P. aeruginosa PAO1 [7]; 99.9% reduction): > 1280 * > 1280 µM
- Minimal inhibitory concentration (MIC) (P. aeruginosa PAO1 [7]; [16]): > 1280 * > 1280 µM
- CMC [8]: 0.00073 mol/L
- reduction of adhesion to polystyrene [9]: did not reduce the adhesion
- reduction of adhesion to polystyrene (S. epidermidis B374 [10]): approximately 85%
- reduction of adhesion to glass (P. aeruginosa PAO1 [11]): approximately 20%
- Minimal bactericidal concentration (*MBC) ([12]; 99.9% reduction): 640 *640 µM
- Minimal inhibitory concentration (MIC) [12, 16]: 640 *640 µM
- Minimal bactericidal concentration (*MBC) (S. epidermidis B374 [13]; 99.9% reduction): 10 *10 µM
- Minimal inhibitory concentration (MIC) (S. epidermidis B374 [13]; [16]): 10 *10 µM
- Minimal bactericidal concentration (*MBC) (S. epidermidis SI8; 99.9% reduction): 10 *10 µM
- Minimal inhibitory concentration (MIC) (S. epidermidis SI8; [16]): 10 *10 µM
- reduction of adhesion to stainless steel [14]: 77%
- biofilm destruction [15]: approximately 40%
- Minimal bactericidal concentration (*MBC) (E. coli H64; 99.9% reduction): 160 *160 µM
- Minimal inhibitory concentration (MIC) (E. coli H64; [16]): 160 *160 µM
- MBC (E. coli ATCC 11229; 99.9% reduction, read-out: Minimal bactericidal concentration (*MBC)): 1280 µM
- MIC (E. coli ATCC 11229; 24 h, 37 °C, >90% growth inhibition, read-out: Minimal inhibitory concentration (MIC)): 640 µM
